Data published in ChEMBL document CHEMBL5143699, “Identification of novel indole derivatives as highly potent AMPK activators with anti-diabetic profiles” (Bioorg Med Chem Lett, 2022).
pEC50, pIC50: −log10 of the molar value. One block for each compound: values may come before it. The source made the active and inactive calls. The calls are words filed in the database; no cut-off is given here.

How the values were obtained:
[1] = Protein binding in serum (unknown origin) assessed as unbound fraction by equilibrium dialysis assay; type: ADME, cell-free
[2] = Cmax in rat at 1 mg/kg, po or 0.5 mg/kg, iv; type: ADME, organism-based; set-up: dose 1 mg/kg, route po; conditions: in vivo
[3] = […] of the compound in rat muscle at 1 mg/kg, po or 0.5 mg/kg, iv; type: ADME, organism-based
[4] = Metabolic stability in rat liver microsomes assessed as compound remaining measured after 30 mins; type: ADME, Microsome; conditions: read-out: Stability
[5] = target: Cytochrome P450 2C19 (Homo sapiens, UniProt P33261); test: Inhibition of CYP2C19 in human liver microsomes using mephenytoin as substrate; type: ADME, Microsome
Cytochrome P450 2C19, sequence (P33261 whole entry): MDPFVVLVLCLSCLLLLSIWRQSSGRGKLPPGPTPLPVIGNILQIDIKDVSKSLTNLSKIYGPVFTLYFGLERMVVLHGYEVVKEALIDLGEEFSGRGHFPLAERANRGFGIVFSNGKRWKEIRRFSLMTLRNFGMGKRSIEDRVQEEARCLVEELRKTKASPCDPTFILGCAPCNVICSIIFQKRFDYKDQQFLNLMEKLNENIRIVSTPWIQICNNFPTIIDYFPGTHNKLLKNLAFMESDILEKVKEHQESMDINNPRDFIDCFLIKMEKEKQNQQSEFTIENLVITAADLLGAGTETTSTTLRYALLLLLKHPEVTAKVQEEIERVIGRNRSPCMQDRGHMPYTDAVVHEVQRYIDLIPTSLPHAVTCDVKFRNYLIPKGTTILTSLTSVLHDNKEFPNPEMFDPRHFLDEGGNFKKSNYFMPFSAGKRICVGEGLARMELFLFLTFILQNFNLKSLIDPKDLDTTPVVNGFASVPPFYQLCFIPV

[6] = target: Cytochrome P450 2D6 (Homo sapiens, UniProt P10635); test: Inhibition of CYP2D6 in human liver microsomes using dextromethorphan as substrate; type: ADME, Microsome
Cytochrome P450 2D6, sequence (P10635 whole entry): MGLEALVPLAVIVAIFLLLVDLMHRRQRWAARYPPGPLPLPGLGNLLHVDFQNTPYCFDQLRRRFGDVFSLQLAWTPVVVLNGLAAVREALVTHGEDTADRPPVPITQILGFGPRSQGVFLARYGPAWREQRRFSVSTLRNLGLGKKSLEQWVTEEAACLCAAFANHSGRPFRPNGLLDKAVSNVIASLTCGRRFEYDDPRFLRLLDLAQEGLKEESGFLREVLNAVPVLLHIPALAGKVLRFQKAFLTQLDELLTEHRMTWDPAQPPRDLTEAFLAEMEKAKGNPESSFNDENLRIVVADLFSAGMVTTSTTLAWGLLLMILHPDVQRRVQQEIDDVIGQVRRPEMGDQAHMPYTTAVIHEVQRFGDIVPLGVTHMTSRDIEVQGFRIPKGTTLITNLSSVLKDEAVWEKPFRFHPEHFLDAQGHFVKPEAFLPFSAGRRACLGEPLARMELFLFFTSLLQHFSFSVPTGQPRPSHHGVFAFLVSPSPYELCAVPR

[7] = target: Cytochrome P450 2C9 (Homo sapiens, UniProt P11712); test: Inhibition of CYP2C9 in human liver microsomes using tolbutamide as substrate; type: ADME, Microsome
Cytochrome P450 2C9, sequence (P11712 whole entry): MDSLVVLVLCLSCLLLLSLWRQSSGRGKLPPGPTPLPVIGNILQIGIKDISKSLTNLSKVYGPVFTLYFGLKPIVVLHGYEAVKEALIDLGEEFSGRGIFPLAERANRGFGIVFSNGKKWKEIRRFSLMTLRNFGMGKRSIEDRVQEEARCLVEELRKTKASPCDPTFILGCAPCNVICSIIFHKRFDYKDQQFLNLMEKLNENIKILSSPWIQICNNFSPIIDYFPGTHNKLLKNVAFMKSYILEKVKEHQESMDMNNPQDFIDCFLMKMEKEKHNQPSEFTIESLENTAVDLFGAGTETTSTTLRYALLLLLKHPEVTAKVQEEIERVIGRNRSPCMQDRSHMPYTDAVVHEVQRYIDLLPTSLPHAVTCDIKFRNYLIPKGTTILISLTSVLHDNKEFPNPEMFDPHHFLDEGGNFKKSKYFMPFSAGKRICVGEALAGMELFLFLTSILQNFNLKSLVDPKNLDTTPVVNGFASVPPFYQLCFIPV

[8] = target: Cytochrome P450 3A4 (Homo sapiens, UniProt P08684); test: Inhibition of CYP3A4 in human liver microsomes using terfenedine as substrate; type: ADME, Microsome
Cytochrome P450 3A4, sequence (P08684 whole entry): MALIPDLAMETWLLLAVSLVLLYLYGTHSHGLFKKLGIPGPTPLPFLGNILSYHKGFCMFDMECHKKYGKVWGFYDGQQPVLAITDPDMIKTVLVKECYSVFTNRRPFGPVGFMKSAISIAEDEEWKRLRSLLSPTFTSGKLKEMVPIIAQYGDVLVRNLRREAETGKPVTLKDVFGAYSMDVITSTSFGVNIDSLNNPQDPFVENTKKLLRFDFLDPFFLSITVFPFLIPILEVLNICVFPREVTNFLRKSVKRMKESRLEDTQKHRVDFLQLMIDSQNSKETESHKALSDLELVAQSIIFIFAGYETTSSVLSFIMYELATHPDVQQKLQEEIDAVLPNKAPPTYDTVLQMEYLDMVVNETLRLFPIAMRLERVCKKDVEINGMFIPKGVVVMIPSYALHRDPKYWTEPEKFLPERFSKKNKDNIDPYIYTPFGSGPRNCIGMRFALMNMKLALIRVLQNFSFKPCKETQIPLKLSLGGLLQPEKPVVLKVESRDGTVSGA

[9] = AUC in rat at 1 mg/kg, po; type: ADME, organism-based; set-up: dose 1 mg/kg, route po; conditions: in vivo
[10] = target: T1, Cytochrome P450 1A2 (Homo sapiens, UniProt P05177); test: Inhibition of CYP1A2 in human liver microsomes using 7-ethoxyresorufin as substrate; type: ADME, Microsome
T1 sequence (P05177 whole entry): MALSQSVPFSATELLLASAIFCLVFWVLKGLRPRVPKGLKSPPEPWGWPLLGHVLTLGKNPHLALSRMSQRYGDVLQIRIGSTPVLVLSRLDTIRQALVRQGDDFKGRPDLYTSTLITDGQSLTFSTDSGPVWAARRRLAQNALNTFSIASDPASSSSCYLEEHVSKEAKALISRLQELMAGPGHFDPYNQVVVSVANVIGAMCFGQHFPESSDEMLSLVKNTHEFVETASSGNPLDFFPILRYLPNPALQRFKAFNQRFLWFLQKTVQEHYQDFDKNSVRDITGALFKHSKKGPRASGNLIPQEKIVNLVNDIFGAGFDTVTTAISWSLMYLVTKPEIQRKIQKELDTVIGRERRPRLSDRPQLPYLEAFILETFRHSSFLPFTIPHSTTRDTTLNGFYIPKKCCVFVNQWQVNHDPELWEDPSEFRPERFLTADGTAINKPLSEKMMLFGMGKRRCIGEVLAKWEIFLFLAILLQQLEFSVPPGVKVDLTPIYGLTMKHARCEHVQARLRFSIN

[11] = Metabolic stability in human liver microsomes assessed as compound remaining measured after 30 mins; type: ADME, Microsome; conditions: read-out: Stability
[12] = target: AMPK alpha2/beta2/gamma1 (Homo sapiens) (UniProt P54646+O43741+P54619); test: Activation of human recombinant AMPK A2/B2/G1 assessed as increase in AMPK phosphorylation using FL-peptide as substrate incubated for 120 mins by EZ reader method; type: protein-complex assay
AMPK alpha2/beta2/gamma1 (Homo sapiens), sequence (P54619 whole entry, looked up, one chain of several): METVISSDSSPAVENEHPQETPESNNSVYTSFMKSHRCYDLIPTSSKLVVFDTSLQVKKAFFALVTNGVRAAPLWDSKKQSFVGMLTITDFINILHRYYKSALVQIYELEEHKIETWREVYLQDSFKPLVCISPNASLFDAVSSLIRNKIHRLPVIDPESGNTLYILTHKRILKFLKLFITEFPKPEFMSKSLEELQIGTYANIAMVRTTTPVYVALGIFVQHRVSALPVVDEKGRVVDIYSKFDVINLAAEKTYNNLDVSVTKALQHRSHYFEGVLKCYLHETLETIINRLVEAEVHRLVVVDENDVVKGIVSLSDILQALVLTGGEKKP
AMPK alpha2/beta2/gamma1 (Homo sapiens), sequence (P54646 whole entry, looked up, one chain of several): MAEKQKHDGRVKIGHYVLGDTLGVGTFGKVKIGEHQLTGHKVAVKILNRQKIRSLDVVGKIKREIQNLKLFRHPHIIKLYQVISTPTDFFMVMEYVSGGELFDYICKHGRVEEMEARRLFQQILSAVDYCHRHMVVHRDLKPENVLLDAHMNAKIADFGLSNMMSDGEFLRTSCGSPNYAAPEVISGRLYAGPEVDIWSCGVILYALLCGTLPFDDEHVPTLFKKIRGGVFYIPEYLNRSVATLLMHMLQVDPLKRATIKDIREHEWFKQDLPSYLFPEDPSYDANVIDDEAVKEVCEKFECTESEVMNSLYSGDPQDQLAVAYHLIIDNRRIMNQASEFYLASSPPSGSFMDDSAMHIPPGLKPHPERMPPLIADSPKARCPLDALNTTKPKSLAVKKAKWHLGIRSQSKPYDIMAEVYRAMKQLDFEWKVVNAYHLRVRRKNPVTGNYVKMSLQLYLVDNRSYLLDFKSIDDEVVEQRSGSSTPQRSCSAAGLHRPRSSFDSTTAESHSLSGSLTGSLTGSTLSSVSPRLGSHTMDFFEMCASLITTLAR

[13] = […] of the compound in rat liver at 1 mg/kg, po or 0.5 mg/kg, iv; type: ADME, organism-based
[14] = target: T2, 5'-AMP-activated protein kinase subunit beta-1 (Rattus norvegicus, UniProt P80386); test: Activation of rat liver AMPK-beta1 using SAMS peptide as substrate incubated for 10 mins by microplate reader assay; type: tissue-based
T2 sequence (P80386 whole entry): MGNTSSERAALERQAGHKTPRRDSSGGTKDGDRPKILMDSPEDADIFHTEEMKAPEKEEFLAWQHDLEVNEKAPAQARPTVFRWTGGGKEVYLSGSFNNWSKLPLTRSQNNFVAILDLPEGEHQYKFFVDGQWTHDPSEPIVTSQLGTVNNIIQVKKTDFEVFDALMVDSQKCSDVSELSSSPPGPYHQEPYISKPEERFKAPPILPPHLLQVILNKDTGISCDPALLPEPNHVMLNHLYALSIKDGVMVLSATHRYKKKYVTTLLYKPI

[15] = system: Mus musculus; test: Antidiabetic activity against type 2 diabetic KKAy mouse model assessed as decrease in lipid accumulation in liver at 1.5 to 6 mg/kg,po bid measured on 25 to 26 days after insulin injection; type: functional, organism-based; conditions: dose 1.5-6 mg/kg, time 25-26 day
[16] = system: Mus musculus; test: Antidiabetic activity against type 2 diabetic KKAy mouse model assessed as decrease in HbA1c level administrated orally bid measured after 21 days of administration by automatic analyzer; type: functional, organism-based; conditions: route po, time 21.0 day, DDE = dose-dependent effect
[17] = target: T3, 5'-AMP-activated protein kinase (Mus musculus) (UniProt Q5EG47+Q8BRK8+Q6PAM0+O54950+Q91WG5+Q9R078+Q8BGM7); test: In vivo activation of AMPK in mouse liver assessed as increase in AMPKalpha phosphorylation level at 0.08 to 6.75 mg/kg,po by western blot method; type: functional, organism-based; conditions: dose 0.08-6.75 mg/kg, DDE = dose-dependent effect
[18] = target: T3, 5'-AMP-activated protein kinase (Mus musculus); test: In vivo activation of AMPK in mouse skeletal muscle assessed as increase in ACC phosphorylation level at 0.08 to 6.75 mg/kg,po by ELISA; type: functional, organism-based; conditions: Skeletal muscle tissue, dose 0.08-6.75 mg/kg, DDE = dose-dependent effect
[19] = system: Mus musculus; test: Antidiabetic activity against po dosed type 2 diabetic KKAy mouse model assessed as acute glucose lowering effect measured for 1 to 6 hrs; type: functional, organism-based; conditions: time 1-6 hrs, DDE = dose-dependent effect
[20] = system: Mus musculus; test: Antidiabetic activity against type 2 diabetic KKAy mouse model assessed as decrease in plasma glucose level administrated orally bid measured after 21 days of administration by automatic analyzer; type: functional, organism-based; conditions: route po, time 21.0 day, DDE = dose-dependent effect
[21] = system: Mus musculus; test: Antidiabetic activity against type 2 diabetic KKAy mouse model assessed as increase in Akt phosphorylation in skeletal muscle at 1.5 to 6 mg/kg,po bid measured on 25 to 26 days after insulin injection by ELISA; type: functional, organism-based; conditions: dose 1.5-6 mg/kg, time 25-26 day
[22] = target: T4, 5'-AMP-activated protein kinase subunit beta-2 (Homo sapiens, UniProt O43741); test: Activation of recombinant AMPK-beta2 (unknown origin) assessed as increase in AMPK phosphorylation by DELFIA fluorescence assay
T4 sequence (O43741 whole entry): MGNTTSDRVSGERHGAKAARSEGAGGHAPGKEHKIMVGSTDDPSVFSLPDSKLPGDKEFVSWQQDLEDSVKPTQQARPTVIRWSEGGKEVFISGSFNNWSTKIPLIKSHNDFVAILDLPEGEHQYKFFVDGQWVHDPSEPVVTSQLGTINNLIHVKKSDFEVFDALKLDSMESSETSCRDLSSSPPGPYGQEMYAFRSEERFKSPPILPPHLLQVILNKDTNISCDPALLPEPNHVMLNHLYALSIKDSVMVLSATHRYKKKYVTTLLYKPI

SMILES: CS(C)(=O)=Nc1ccc(-c2ccc(-c3nc4cc(O[C@@H]5CO[C@H]6[C@@H]5OC[C@H]6O)[nH]c4cc3F)cc2)cc1
fraction unbound [1]: 0.016 | Cmax [2]: 68.7 ng/mL | Kp [3]: 0.61 | remaining at 0.5 h [4]: 91% | pIC50 [5]: < 5.00 | pIC50 [6]: < 5.00 | pIC50 [7]: < 5.00 | pIC50 [8]: < 5.00 | AUC [9]: 288 ng·h/mL | pIC50 [10]: < 5.00 | remaining at 0.5 h [11]: > 99% | EC150 ([12]; filed as activator): 0.001 µM | Kp [13]: 2.4

SMILES: COCCOc1ccc(-c2ccc(-c3nc4cc(O[C@@H]5CO[C@H]6[C@@H]5OC[C@H]6O)[nH]c4cc3F)cc2)cn1
EC150 ([12]; filed as activator): 0.016 µM

SMILES: COCCOc1ccc(-c2ccc(-c3nc4cc(O[C@@H]5CO[C@H]6[C@@H]5OC[C@H]6O)[nH]c4cc3F)cc2)cc1
fraction unbound [1]: 0.002 | EC150 ([12]; filed as activator): 0.0073 µM

SMILES: O=S1(=Nc2ccc(-c3ccc(-c4nc5cc(O[C@@H]6CO[C@H]7[C@@H]6OC[C@H]7O)[nH]c5cc4F)cc3)cc2)CCCC1
fraction unbound [1]: 0.01 | Cmax [2]: 43 ng/mL | Kp [3]: 0.67 | remaining at 0.5 h [4]: 86% | pIC50 [5]: 5.43 | AUC [9]: 251 ng·h/mL | remaining at 0.5 h [11]: 98% | EC150 ([12]; filed as activator): 0.002 µM | Kp [13]: 3.34

SMILES: CS(C)(=O)=Nc1ccc(-c2ccc(-c3nc4cc(O[C@@H]5CO[C@H]6[C@@H]5OC[C@H]6O)[nH]c4cc3F)cc2)nc1
fraction unbound [1]: 0.072 | Cmax [2]: 44.8 ng/mL | Kp [3]: 0.98 | remaining at 0.5 h [4]: 83% | pIC50 [5]: < 5.00 | pIC50 [6]: < 5.00 | pIC50 [7]: < 5.00 | pIC50 [8]: < 5.00 | AUC [9]: 111 ng·h/mL | pIC50 [10]: < 5.00 | remaining at 0.5 h [11]: > 99% | EC150 ([12]; filed as activator): 0.0034 µM | Kp [13]: 2.19

SMILES: O[C@@H]1CO[C@H]2[C@@H]1OC[C@H]2Oc1cc2nc(-c3ccc(N4CCOCC4)cc3)c(F)cc2[nH]1
EC150 ([12]; filed as activator): 0.0053 µM

SMILES: N#Cc1c(O[C@@H]2CO[C@H]3[C@@H]2OC[C@H]3O)[nH]c2ccc(-c3ccc(N4CCOCC4)cc3)cc12
EC150 ([12]; filed as activator): 0.38 µM

SMILES: COc1ccc(-c2ccc(-c3nc4cc(O[C@@H]5CO[C@H]6[C@@H]5OC[C@H]6O)[nH]c4cc3F)cc2)cc1
EC150 ([12]; filed as activator): 0.011 µM

SMILES: N#Cc1c(O[C@@H]2CO[C@H]3[C@@H]2OC[C@H]3O)[nH]c2cc(Cl)c(-c3ccc(N4CCOCC4)cc3)nc12
EC150 ([12]; filed as activator): 0.087 µM

Continued, in another order:

EC150 ([12]; filed as activator): 0.039 µM
SMILES: N#Cc1c(O[C@@H]2CO[C@H]3[C@@H]2OC[C@H]3O)[nH]c2cc(Cl)c(-c3ccc(N4CCOCC4)cc3)cc12

pEC50 [14]: 6.10
SMILES: N#CC1=C(O)C2C(c3ccc(-c4ccccc4O)cc3)=CSC2NC1=O (stereo unspecified)

fraction unbound [1]: 0.01 | pIC50 [5]: 5.13 | EC150 ([12]; filed as activator): 0.0018 µM
SMILES: O=C(c1ccc(-c2ccc(-c3nc4cc(O[C@@H]5CO[C@H]6[C@@H]5OC[C@H]6O)[nH]c4cc3F)cc2)cc1)N1CCCC1

fraction unbound [1]: 0.011 | Cmax [2]: 130 ng/mL | Kp [3]: 0.63 | remaining at 0.5 h [4]: 90% | Activity [17]: Dde | Activity [18]: Dde | AUC [9]: 810 ng·h/mL | remaining at 0.5 h [11]: 94% | EC150 ([12]; filed as activator): 0.001 µM | Kp [13]: 7.14
SMILES: CS(C)(=O)=Nc1ccc(-c2ccc(-c3nc4cc(O[C@@H]5CO[C@H](CO)C5)[nH]c4cc3F)cc2)cc1
Activity [15]: Active | Activity [16]: Dde | Activity [19]: Dde | Activity [20]: Dde | Activity [21]: Active

EC150 [12]: > 100 µM
SMILES: Cn1c(O[C@@H]2CO[C@H]3[C@@H]2OC[C@H]3O)c(C#N)c2cc(-c3ccc(N4CCOCC4)cc3)c(Cl)cc21

EC150 ([12]; filed as activator): 0.017 µM
SMILES: O[C@@H]1CO[C@H]2[C@@H]1OC[C@H]2Oc1cc2nc(-c3ccc(-c4ccccc4)cc3)c(F)cc2[nH]1

pEC50 [22]: 5.89
SMILES: O=C1NC2SC(Cl)=C(c3ccc4c(c3O)CCCC4)C2C(O)=C1c1ccccc1 (stereo unspecified)

EC150 ([12]; filed as activator): 0.0019 µM
SMILES: O[C@@H]1CO[C@H]2[C@@H]1OC[C@H]2Oc1cc2nc(-c3ccc(N4CCOCC4)cc3)c(Cl)cc2[nH]1
